Tests used:
[1] = Oral bioavailability in rat at 23.7 mg/kg and measured up to 24 hrs by LC/MS analysis; assay type: ADME, organism-based; settings: in vivo
Plasmodium falciparum [2] = experiment: Antimalarial activity against Plasmodium falciparum infected in human assessed as reduction in parasite growth at 30 mg/kg, po administered daily for 3 consecutive day and measured on day 5 relative to control; assay type: functional; design: scale not given: the % may be the effect or the level left
[3] = Volume of distribution in Wistar Hannover rat at 5 mg/kg, iv by LC-MS/MS analysis; assay type: ADME, organism-based; settings: in vivo
[4] = Clearance in Wistar Hannover rat at 5 mg/kg, iv by LC-MS/MS analysis; assay type: ADME, organism-based; settings: in vivo
Plasmodium vivax [5] = experiment: Antimalarial activity against Plasmodium vivax infected in human assessed as median parasite clearance time at 30 mg/kg, po administered daily for 3 consecutive day and measured on day 5; assay type: functional
[6] = Cmax in human at […], po and measured up to 96 to 144 hrs by LC-MS/MS analysis; assay type: ADME, organism-based; design: route oral; settings: in vivo
[7] = AUC (infinity) in rat at 23.7 mg/kg, po and measured up to 24 hrs by LC/MS analysis; assay type: ADME, organism-based; design: dose 23.7 mg/kg, route oral, time infinity; settings: in vivo
Plasmodium falciparum [8] = experiment: Antimalarial activity against Plasmodium falciparum V1/S infected in human erythrocytes assessed as reduction in [3H]-hypoxanthine incorporation incubated for 48 hrs followed by addition of [3H]-hypoxanthine and measured after 24 hrs by liquid scintillation counting method; assay type: functional, organism-based
[9] = Apparent clearance in human at 300 mg, po and measured up to 96 to 144 hrs by LC-MS/MS analysis; settings: in vivo, read-out: CL(app) (converted)
Plasmodium falciparum [10] = experiment: Antimalarial activity against Plasmodium falciparum W2 infected in human erythrocytes assessed as reduction in [3H]-hypoxanthine incorporation incubated for 48 hrs followed by addition of [3H]-hypoxanthine and measured after 24 hrs by liquid scintillation counting method; assay type: functional, organism-based
[11] = Tmax in human at […], po and measured up to 96 to 144 hrs by LC-MS/MS analysis; assay type: ADME, organism-based; settings: in vivo
Plasmodium berghei = experiment: Antimalarial activity against Plasmodium berghei infected in NMRI mouse assessed as reduction in parasite growth at 10 mg/kg, po administered daily for 3 consecutive days by flow cytometric analysis relative to control; assay type: functional; design: scale not given: the % may be the effect or the level left
[12] = Half life in Wistar Hannover rat at 5 mg/kg, iv by LC-MS/MS analysis; settings: in vivo
[13] = Half life in human; assay type: ADME
Plasmodium vivax [14] = experiment: Antimalarial activity against Plasmodium vivax infected in human assessed as reduction in parasite growth at 30 mg/kg, po administered daily for 3 consecutive day and measured on day 5 relative to control; assay type: functional; design: scale not given: the % may be the effect or the level left
[15] = Volume of distribution in Beagle dog at 1 mg/kg, iv by LC-MS/MS analysis; assay type: ADME, organism-based, Canis lupus familiaris; settings: in vivo
[16] = Cytotoxicity against human HepG2 cells assessed as reduction in cell viability after 4 days by XTT assay; assay type: cell-based
[17] = Oral bioavailability in mouse at 24.6 mg/kg and measured up to 24 hrs by LC/MS analysis; assay type: ADME, organism-based; settings: in vivo
in vivo = settings: mouse, po, 24.6 mg/kg
Description: Half life in mouse at 24.6 mg/kg, po and measured up to 24 hrs by LC/MS analysis

[18] = target: Voltage-gated inwardly rectifying potassium channel KCNH2 (Homo sapiens, UniProt Q12809); experiment: Inhibition of human ERG by patch clamp method
Chain of Voltage-gated inwardly rectifying potassium channel KCNH2 (Q12809 whole entry): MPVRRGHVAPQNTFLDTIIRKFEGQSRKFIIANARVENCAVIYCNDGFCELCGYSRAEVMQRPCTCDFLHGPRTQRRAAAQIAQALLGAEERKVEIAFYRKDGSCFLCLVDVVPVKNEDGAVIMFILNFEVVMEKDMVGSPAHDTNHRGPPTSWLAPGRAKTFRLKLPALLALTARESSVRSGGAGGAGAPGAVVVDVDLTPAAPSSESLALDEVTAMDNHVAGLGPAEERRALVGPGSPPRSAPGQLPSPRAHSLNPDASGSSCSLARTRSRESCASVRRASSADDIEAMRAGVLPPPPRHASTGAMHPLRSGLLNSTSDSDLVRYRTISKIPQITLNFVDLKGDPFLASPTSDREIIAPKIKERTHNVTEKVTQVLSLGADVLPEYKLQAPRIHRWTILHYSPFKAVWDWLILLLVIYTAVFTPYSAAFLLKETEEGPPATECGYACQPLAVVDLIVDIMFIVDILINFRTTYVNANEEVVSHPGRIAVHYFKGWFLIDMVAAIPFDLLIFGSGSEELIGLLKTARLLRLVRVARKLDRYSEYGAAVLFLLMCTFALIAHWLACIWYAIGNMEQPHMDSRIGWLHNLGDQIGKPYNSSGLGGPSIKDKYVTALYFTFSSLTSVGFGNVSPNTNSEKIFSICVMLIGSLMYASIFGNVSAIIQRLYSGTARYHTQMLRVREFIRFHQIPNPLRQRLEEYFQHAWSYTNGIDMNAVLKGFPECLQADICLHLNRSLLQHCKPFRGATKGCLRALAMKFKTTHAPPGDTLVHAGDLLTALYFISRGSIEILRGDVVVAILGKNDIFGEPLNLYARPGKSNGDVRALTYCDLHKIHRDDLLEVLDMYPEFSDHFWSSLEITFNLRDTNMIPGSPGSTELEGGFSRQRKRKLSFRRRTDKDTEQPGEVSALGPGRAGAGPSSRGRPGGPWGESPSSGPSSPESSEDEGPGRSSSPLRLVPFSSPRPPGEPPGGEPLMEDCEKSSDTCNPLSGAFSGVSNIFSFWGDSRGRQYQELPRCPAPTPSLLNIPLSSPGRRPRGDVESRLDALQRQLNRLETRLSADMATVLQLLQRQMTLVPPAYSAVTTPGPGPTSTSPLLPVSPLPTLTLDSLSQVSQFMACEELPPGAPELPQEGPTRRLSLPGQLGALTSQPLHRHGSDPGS

Plasmodium falciparum [19] = experiment: Antimalarial activity against Plasmodium falciparum K1 infected in human erythrocytes assessed as reduction in [3H]-hypoxanthine incorporation incubated for 48 hrs followed by addition of [3H]-hypoxanthine and measured after 24 hrs by liquid scintillation counting method; assay type: functional, organism-based

C[C@H]1Cc2c([nH]c3cc(Cl)c(F)cc23)[C@@]2(N1)C(=O)Nc1ccc(Cl)cc12 [CIPARGAMIN]
bioavailability [1]: 100% | Activity (Plasmodium falciparum [2]): 100% | Vd [3]: 3.18 L/kg | clearance [4]: 4.2 mL/min/kg | Time (Plasmodium vivax [5]): 12 h | Cmax [6]: 2000 ng/mL | AUC(0-inf) [7]: 524 µM·h | EC50 (Plasmodium falciparum [8]): 0.5 to 1.4 nM | CL/F [9]: 91.7 mL/min | EC50 (Plasmodium falciparum [10]): 0.5 to 1.4 nM | Tmax [11]: 8 h | Activity (Plasmodium berghei): 50% | half-life [12]: 8.2 h | half-life [13]: 33 h | Activity (Plasmodium vivax [14]): 100% | Vd [15]: 2.17 L/kg | CC50 at 96 h [16]: > 10000 nM | bioavailability [17]: 100% | half-life at 24 h (in vivo): 10 h | IC50 [18]: ≥ 30000 nM | EC50 (Plasmodium falciparum [19]): 0.5 to 1.4 nM

Reference: ChEMBL document CHEMBL4376815, “The Development Process for Discovery and Clinical Advancement of Modern Antimalarials” (J Med Chem, 2019)
